Experimental data reported in ChEMBL document CHEMBL1133842, “Identification of a series of PPAR gamma/delta dual agonists via solid-phase parallel synthesis” (Bioorg Med Chem Lett, 2001).
pEC50: −log10 of the molar value.

Tests used:
[1] = target: T1, Peroxisome proliferator-activated receptor gamma (Homo sapiens, UniProt P37231); assay: Agonistic transcriptional activity in CV-1 cells expressing Gal4-PPAR gamma chimera; format: functional, cell-based
T1 sequence (P37231 whole entry): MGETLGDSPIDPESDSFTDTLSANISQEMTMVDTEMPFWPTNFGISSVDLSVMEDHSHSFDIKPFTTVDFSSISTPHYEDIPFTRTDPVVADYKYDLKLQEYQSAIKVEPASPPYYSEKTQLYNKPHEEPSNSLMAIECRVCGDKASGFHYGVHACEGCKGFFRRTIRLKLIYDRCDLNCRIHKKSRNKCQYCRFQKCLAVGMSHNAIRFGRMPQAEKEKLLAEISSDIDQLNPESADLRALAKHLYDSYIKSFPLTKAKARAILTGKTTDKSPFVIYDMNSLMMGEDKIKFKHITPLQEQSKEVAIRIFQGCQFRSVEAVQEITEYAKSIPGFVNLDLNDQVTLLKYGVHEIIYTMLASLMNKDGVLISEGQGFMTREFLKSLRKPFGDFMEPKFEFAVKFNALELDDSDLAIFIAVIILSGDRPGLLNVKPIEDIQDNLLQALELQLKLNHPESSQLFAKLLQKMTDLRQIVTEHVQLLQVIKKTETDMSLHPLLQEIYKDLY

[2] = target: T2, Peroxisome proliferator-activated receptor delta (Homo sapiens, UniProt Q03181); assay: Agonistic transcriptional activity in CV-1 cells expressing Gal4-PPAR delta chimera; format: functional, cell-based
T2 sequence (Q03181 whole entry): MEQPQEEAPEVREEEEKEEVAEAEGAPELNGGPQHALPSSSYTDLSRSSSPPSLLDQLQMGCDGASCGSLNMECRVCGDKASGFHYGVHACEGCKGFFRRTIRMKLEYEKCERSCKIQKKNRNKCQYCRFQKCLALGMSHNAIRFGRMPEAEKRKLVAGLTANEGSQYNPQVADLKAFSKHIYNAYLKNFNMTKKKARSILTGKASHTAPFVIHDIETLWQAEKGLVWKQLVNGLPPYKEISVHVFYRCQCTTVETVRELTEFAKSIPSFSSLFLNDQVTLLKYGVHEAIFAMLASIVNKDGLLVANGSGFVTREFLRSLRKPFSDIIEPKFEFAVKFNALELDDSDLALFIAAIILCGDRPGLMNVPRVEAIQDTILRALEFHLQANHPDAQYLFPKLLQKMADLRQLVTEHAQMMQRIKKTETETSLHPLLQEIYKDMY

[3] = target: T3, Peroxisome proliferator-activated receptor alpha (Homo sapiens, UniProt Q07869); assay: Agonistic transcriptional activity in CV-1 cells expressing Gal4-PPAR alpha chimera; format: functional, cell-based
T3 sequence (Q07869 whole entry): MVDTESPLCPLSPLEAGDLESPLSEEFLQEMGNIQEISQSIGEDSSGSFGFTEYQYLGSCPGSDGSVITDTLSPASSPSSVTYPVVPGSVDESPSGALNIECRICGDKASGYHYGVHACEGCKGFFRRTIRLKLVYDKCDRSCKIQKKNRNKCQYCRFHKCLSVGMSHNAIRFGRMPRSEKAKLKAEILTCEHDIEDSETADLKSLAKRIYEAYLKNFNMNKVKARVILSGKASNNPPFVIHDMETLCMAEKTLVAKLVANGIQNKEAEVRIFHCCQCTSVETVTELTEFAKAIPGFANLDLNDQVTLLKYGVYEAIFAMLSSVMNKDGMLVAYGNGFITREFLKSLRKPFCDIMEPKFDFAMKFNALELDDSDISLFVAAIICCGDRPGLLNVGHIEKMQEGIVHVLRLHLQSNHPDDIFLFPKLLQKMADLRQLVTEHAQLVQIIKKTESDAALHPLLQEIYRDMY

Rattus norvegicus [4] = assay: In vivo percent reduction in serum triglycerides in ZDF rats at 30 mg/kg bid dose after 7 day administration; format: functional
[5] = target: T4, Peroxisome proliferator-activated receptor delta (Mus musculus, UniProt P35396); assay: Agonist activity against PPAR delta; format: functional
T4 sequence (P35396 whole entry): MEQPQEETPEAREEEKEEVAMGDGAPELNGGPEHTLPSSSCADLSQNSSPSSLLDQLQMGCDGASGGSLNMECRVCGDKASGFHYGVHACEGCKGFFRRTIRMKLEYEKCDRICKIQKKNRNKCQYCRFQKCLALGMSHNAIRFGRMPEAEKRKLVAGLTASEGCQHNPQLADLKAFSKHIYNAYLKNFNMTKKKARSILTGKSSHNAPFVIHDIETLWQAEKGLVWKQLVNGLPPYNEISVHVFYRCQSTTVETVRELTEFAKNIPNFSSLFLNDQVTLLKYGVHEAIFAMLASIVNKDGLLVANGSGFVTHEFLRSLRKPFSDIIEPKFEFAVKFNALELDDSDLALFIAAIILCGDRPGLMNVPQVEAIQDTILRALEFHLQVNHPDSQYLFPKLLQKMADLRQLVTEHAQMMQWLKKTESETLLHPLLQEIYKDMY

[6] = target: T5, Peroxisome proliferator-activated receptor alpha (Mus musculus, UniProt P23204); assay: Agonist activity against PPAR alpha; format: functional
T5 sequence (P23204 whole entry): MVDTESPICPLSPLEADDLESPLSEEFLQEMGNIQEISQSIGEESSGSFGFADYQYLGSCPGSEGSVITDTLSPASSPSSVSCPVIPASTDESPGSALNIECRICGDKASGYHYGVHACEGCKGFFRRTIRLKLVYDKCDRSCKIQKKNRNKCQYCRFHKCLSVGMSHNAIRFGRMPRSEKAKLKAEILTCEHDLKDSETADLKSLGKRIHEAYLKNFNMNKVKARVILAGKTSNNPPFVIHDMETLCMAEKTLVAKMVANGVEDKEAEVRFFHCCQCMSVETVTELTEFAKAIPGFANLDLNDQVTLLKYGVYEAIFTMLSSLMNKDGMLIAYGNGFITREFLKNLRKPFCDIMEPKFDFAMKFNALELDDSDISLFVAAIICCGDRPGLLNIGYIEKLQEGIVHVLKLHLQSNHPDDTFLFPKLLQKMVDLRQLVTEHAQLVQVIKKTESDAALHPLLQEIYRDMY

[7] = Mean plasma concentration at a oral dose of 3 mg/kg in rat at 1.0 hr; format: ADME, organism-based; set-up: dose 3 mg/kg, route oral
[8] = target: T6, Peroxisome proliferator-activated receptor gamma (Mus musculus, UniProt P37238); assay: Agonist activity against PPAR gamma; format: functional
T6 sequence (P37238 whole entry): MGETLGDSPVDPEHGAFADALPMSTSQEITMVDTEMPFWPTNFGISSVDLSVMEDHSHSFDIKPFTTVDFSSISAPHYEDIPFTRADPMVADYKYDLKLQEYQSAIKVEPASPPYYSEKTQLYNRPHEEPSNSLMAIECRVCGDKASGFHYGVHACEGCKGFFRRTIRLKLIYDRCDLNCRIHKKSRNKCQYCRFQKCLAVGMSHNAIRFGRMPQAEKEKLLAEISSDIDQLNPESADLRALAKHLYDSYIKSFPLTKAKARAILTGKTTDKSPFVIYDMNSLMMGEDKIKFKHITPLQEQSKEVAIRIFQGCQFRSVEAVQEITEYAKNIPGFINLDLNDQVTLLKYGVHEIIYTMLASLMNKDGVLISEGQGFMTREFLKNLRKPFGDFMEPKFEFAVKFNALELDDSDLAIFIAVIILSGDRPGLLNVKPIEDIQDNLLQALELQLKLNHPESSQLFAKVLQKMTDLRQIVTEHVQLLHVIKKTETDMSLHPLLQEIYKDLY

Rattus norvegicus [9] = assay: In vivo percent reduction in plasma glucose in ZDF rats at 30 mg/kg bid dose after 7 day administration; format: functional
Rattus norvegicus [10] = assay: In vivo increase in HDL-c in ZDF rats at 30 mg/kg bid dose after 7 day administration; format: functional
[11] = Mean plasma concentration at a oral dose of 3 mg/kg in rat at 0.5 hr; format: ADME, organism-based; set-up: dose 3 mg/kg, route oral
[12] = Mean plasma concentration at a oral dose of 3 mg/kg in rat at 2.0 hr; format: ADME, organism-based; set-up: dose 3 mg/kg, route oral

pEC50 [1] | pEC50 [2] | pEC50 [3] | pEC50 [5] | pEC50 [6] | concentration at 1 h [7] | pEC50 [8] | concentration at 0.5 h [11] | concentration at 2 h [12] | SMILES | Reduction (Rattus norvegicus [4]) | Reduction (Rattus norvegicus [9]) | Reduction (Rattus norvegicus [10])
9.30 | 6.80 | 6.64 | – | – | – | – | – | – | CCOC(=O)c1ccc(NC(=O)N(CCCc2cccc(OC(C)(C)C(=O)O)c2)Cc2ccc(C(F)(F)F)cc2C(F)(F)F)cc1 | – | – | –
7.52 | 7.03 | 6.15 | – | – | – | – | – | – | CC(C)(Oc1cccc(CCCN(Cc2ccc(C(F)(F)F)cc2C(F)(F)F)C(=O)COc2ccc(Cl)c(Cl)c2)c1)C(=O)O | – | – | –
8.40 | 7.72 | 6.21 | 7.72 | < 6.00 | 722 ng/mL | 7.55 | 373 ng/mL | 524 ng/mL | CC(C)(Oc1cccc(CCCN(Cc2ccc(C(F)(F)F)cc2C(F)(F)F)C(=O)Cc2ccc(C(F)(F)F)cc2)c1)C(=O)O | 51% | 47% | 24%
